The values that follow come from patent US8791132B2, “Compounds and methods for treatment of hypertension” (Medivation Technologies, Inc., priority 2011, dated 2014).

The target of the assay is T1, rat adrenergic α1B receptor (Rattus norvegicus, UniProt P15823).
T1 construct: rat adrenergic α1B receptor obtained from Wistar Rat liver; from tissue; host or cells: Wistar rat liver
T1 sequence (P15823 1-515): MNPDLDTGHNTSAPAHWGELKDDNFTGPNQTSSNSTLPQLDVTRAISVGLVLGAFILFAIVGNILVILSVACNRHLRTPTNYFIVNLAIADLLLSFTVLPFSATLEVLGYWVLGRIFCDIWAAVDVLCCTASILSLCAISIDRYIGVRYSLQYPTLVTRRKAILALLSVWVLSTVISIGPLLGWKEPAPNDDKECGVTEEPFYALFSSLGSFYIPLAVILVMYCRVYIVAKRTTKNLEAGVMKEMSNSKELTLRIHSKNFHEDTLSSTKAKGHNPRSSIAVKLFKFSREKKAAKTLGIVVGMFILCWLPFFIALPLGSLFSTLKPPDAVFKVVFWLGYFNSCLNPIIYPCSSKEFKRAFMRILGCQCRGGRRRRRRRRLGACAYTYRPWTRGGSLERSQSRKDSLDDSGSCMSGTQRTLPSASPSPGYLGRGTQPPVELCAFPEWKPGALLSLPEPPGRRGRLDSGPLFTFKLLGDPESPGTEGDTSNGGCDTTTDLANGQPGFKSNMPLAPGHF
Put plainly: Radioligand binding, adrenergic α1B ([3H]Prazosin). In outline: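 Specific binding, taken as total minus that remaining with 10 μM phentolamine, is measured after filtration and counting. Rat liver receptor preparation and 0.25 nM [3H]prazosin are incubated with compound in 50 mM Tris-HCl (pH 7.4, 0.5 mM EDTA) at 25° C for 60 min. Activity is reported as percent inhibition.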

[1] abbreviates: read-out: Percentage inhibition of ligand binding, Adrenergic α1B (0.03 μM), compound at 0.03 μM, [3H]Prazosin, repeat datapoints each shown.
Setting [2] is: read-out: Percentage inhibition of ligand binding, Adrenergic α1B (0.1 μM), compound at 0.1 μM, [3H]Prazosin, repeat datapoints each shown.
[3] abbreviates: compound at 0.1 μM, [3H]Prazosin, repeat assays, each datapoint shown, 0.1 µM.
[4] abbreviates: compound at 0.1 μM, [3H]Prazosin, repeat assays, each datapoint shown, read-out: Percentage inhibition of ligand binding, Adrenergic α1B.
Setting [5] is: compound at 0.1 μM, [3H]Prazosin, repeat datapoints each shown, 0.1 µM.
Where [6] appears, read: compound at 0.03 μM, [3H]Prazosin, repeat assays, each datapoint shown, read-out: Percentage inhibition of ligand binding, Adrenergic α1B.

Where “and” joins values, the source holds several entries; their conditions need not be identical. Equal entries are not always repeated. Where two headings read alike, the source gives them in different places.

Consider `CN1CCc2c(c3cccc(Cl)c3n2CCc2ccccc2)C1` [compound 216], for which, where the note is “compound at 0.03 μM, [3H]Prazosin, repeat datapoints each shown, 0.03 µM”, the “Percentage inhibition of ligand binding, Adrenergic α1B (0.03 μM)” value came to 47%. The inhibition (in general, the relative decrease from the control value, in per cent) at 0.03 µM under setting [1] was determined as 34%. Under setting [2], the inhibition at 0.1 µM came to 65%.
On to `CN1CCc2c(c3ccccc3n2CCc2ccccc2)C1` [compound 182, 2,3,4,5-Tetrahydro-2-methyl-5-phenethyl-1H-pyrido[4,3-b]indole], for which the inhibition at 0.03 µM under setting [1] amounted to 13%. The inhibition at 0.1 µM under setting [2] was determined as 29%.
In the case of `Cc1ccc2c(c1)c1c(n2CC(C)(O)c2cccnc2)CCN(C)C1` (stereo not drawn) [compound 5, 1-(1,2,3,4-tetrahydro-2,8-dimethylpyrido[4,3-b]indol-5-yl)-2-(pyridin-3-yl)propan-2-ol], the “Percentage inhibition of ligand binding, Adrenergic α1B” value under setting [3] worked out at 21%. Further, under setting [4], the inhibition at 0.1 µM was 14%.
Consider `CCN1CCc2c(c3cc(C)ccc3n2CCc2ccc(C)cc2)C1` [compound 202], for which the inhibition at 0.03 µM under setting [1] stood at 29%. Under setting [2], the inhibition at 0.1 µM turned out to be 52%.
Regarding `Cc1ccc2c(c1)c1c(n2CNc2ccccn2)CCN(C)C1` [compound 120, (2,8-dimethyl-1,2,3,4-tetrahydro-pyrido[4,3-b]indol-5-ylmethyl)-pyridin-2-yl-amine], the “Percentage inhibition of ligand binding, Adrenergic α1B (0.1 μM)” value (“Percentage inhibition … (0.1 μM)” for short) under setting [5] was determined as 22%. The inhibition at 0.03 µM under setting [1] was found to be 4%. The inhibition at 0.1 µM under setting [2] worked out at 21%.
For the molecule `Cc1ccc(C(O)Cn2c3c(c4cc(C)ccc42)CN(C)CC3)cc1` (racemic) [compound 183, racemic-2-(1,2,3,4-tetrahydro-2,8-dimethylpyrido[4,3-b]indol-5-yl)-1-p-tolylethanol], under setting [1], the inhibition at 0.03 µM stood at 50%. Under setting [2], the inhibition at 0.1 µM turned out to be 71%.
With `Cc1ccc2c(c1)c1c(n2CC(C)(O)c2ccc(O)cc2)CCN(C)C1` (stereo not drawn) [compound 98], the “Percentage inhibition … (0.1 μM)” value under setting [5] is reported as 83%. In addition, the inhibition at 0.1 µM under setting [2] worked out at 81%.
As to `Cc1ccc2c(c1)c1c(n2C2=C(c3ccc(C)s3)CCC2)CCN(C)C1` [compound 190, 2,8-dimethyl-5-(2-(5-methylthiophen-2-yl)cyclopent-1-enyl)-2,3,4,5-tetrahydro-1H-pyrido[4,3-b]indole], the “Percentage inhibition … (0.1 μM)” value under setting [5] was found to be 15%. Besides, the inhibition at 0.03 µM under setting [1] is 9%. Also, under setting [2], the inhibition at 0.1 µM turned out to be 14%.
`Cc1cnc2c(c1)c1c(n2CCc2ccc(C)nc2)CCN2CCCC12` (single isomer, unassigned) [74a, 10-methyl-7-(2-(6-methylpyridin-3-yl)ethyl)-2,3,5,6,7,11c-hexahydro-1H-pyrido[3′,2′:4,5]pyrrolo[2,3-g]indolizine]: the affinity, expressed as Ki, was 4.72 nM. For the same molecule, the inhibition at 0.03 µM under setting [6] worked out at 81%. Also, the “Percentage inhibition of ligand binding, Adrenergic α1B” value under setting [3] is 96%. Also, the inhibition at 0.1 µM under setting [4] came out at 91%.
`C/C(=C\n1c2c(c3cc(C)ccc31)CN(C)CC2)c1ccncn1` [compound 101]: the “Percentage inhibition … (0.1 μM)” value under setting [5] came out at 79%. For the same molecule, under setting [2], the inhibition at 0.1 µM stood at 61%.
As for `Cc1ccc2c(c1)c1c(n2CC(O)c2ccncc2)CCNC1` (single isomer, unassigned) [39a, 2-(8-methyl-1,2,3,4-tetrahydro-pyrido[4,3-b]indol-5-yl)-1-pyridin-4-yl-ethanol], the inhibition at 0.03 µM under setting [6] amounted to 9%. The “Percentage inhibition of ligand binding, Adrenergic α1B” value under setting [3] amounted to 33%. Further, the inhibition at 0.1 µM under setting [4] is 38%.
Take `Cc1ccc2c(c1)c1c(n2CC2(c3ccccc3)OCCO2)CCN(C)C1` [compound 83]: the “Percentage inhibition of ligand binding, Adrenergic α1B” value under setting [3] amounted to 15%. In addition, under setting [4], the inhibition at 0.1 µM turned out to be 9%.
For `Cc1ccc2c(c1)c1c(n2CCc2cccnc2)CCN(C)C1` [compound 61], the inhibition at 0.03 µM under setting [6] worked out at 28%. For the same molecule, under setting [4], the inhibition at 0.1 µM was 60%.
On to `Cc1ccc(CCn2c3c(c4ccccc42)CN(C)CC3)cc1` [compound 181, 2,3,4,5-Tetrahydro-2-methyl-5-(4-methylphenethyl)-1H-pyrido[4,3-b]indole], for which the inhibition at 0.03 µM under setting [1] is -4%. For the same molecule, under setting [2], the inhibition at 0.1 µM worked out at 30%.
On the same counts, the results for `Cc1ccc(CCn2c3c(c4cc(C)ccc42)CN(C)CC3)cc1` [compound 180, 2,3,4,5-tetrahydro-2,8-dimethyl-5-(4-methylphenethyl)-1H-pyrido[4,3-b]indole] are 70% and 87%.
Take `C/C(=C\n1c2c(c3cc(C)ccc31)CN(C)CC2)c1sccc1C` [compound 189]: the “Percentage inhibition … (0.1 μM)” value under setting [5] was 31% and 55%. Moreover, the inhibition at 0.03 µM under setting [1] was 26%.
`Cc1ccc2c(c1)c1c(n2C2=C(c3ccc4c(ccn4C)c3)CCC2)CCN(C)C1` [compound 191, 2,8-dimethyl-5-(2-(1-methyl-1H-indol-5-yl)cyclopent-1-enyl)-2,3,4,5-tetrahydro-1H-pyrido[4,3-b]indole]: the “Percentage inhibition … (0.1 μM)” value under setting [5] was found to be 20%. The inhibition at 0.03 µM under setting [1] stood at 2%. Moreover, the inhibition at 0.1 µM under setting [2] turned out to be 10%.
Take `Cc1ccc2c(c1)c1c(n2C2=C(c3ccncc3)CCC2)CCN(C)C1` [compound 114]: the inhibition at 0.1 µM under setting [2] turned out to be 15%.
For the molecule `CCN1CCc2c(c3cc(C)ccc3n2CCc2ccncc2)C1` [compound 85], the inhibition at 0.03 µM under setting [6] was -3%. Besides, the inhibition at 0.1 µM under setting [4] was determined as 26%.
On to `COc1ccc(/C(C)=C/n2c3c(c4cc(C)ccc42)CCN(C)CC3)cc1F` [compound 241], for which the “Percentage inhibition … (0.1 μM)” value under setting [5] is reported as 82%. In addition, under setting [2], the inhibition at 0.1 µM was 81%.
`C/C(=C\n1c2c(c3cc(Cl)ccc31)CN(C)CC2)c1ccncc1` [compound 185, 8-chloro-2,3,4,5-tetrahydro-2-methyl-5-((E)-2-(pyridin-4-yl)prop-1-enyl)-1H-pyrido[4,3-b]indole]: the inhibition at 0.03 µM under setting [1] came to 63%. Also, the inhibition at 0.1 µM under setting [2] was found to be 86%.
On to `CCN1CCc2c(c3cc(C)ccc3n2CCc2ccccc2)C1` [compound 201], for which, under setting [1], the inhibition at 0.03 µM was 22%. The inhibition at 0.1 µM under setting [2] turned out to be 50%.
`CN1CCc2c(c3cc(Cl)ccc3n2CC(O)c2ccncc2)C1` (single isomer, unassigned) [4a]: the inhibition at 0.03 µM under setting [6] turned out to be 25%. Under setting [3], the “Percentage inhibition of ligand binding, Adrenergic α1B” value was 57%. Under setting [4], the inhibition at 0.1 µM is 52%.
As for `Cc1ccc2c(c1)c1c(n2CCc2ccc(CO)nc2)CCN(C)C1` [compound 91], the “Percentage inhibition of ligand binding, Adrenergic α1B” value is, setting by setting: (compound at 0.03 μM, [3H]Prazosin, repeat assays, each datapoint shown, 0.03 µM) 28%; under setting [3], 53%. Moreover, the inhibition at 0.03 µM under setting [6] was determined as 25% and the inhibition at 0.03 µM under setting [1] stood at 32%. The inhibition at 0.1 µM runs as follows: under setting [4], 52%; under setting [2], 58%.
Turning to `CCN1CCc2c(c3cc(C)ccc3n2CC(O)c2ccc(C)cc2)C1` (stereo not drawn) [compound 203], under setting [5], the “Percentage inhibition … (0.1 μM)” value came to 71%. Further, under setting [1], the inhibition at 0.03 µM came out at 37%.
Consider `Cc1cnc2c(c1)c1c(n2CCc2ccc(C)nc2)CCN(C)C1` [II-110, 3,6-dimethyl-9-(2-(6-methylpyridin-3-yl)ethyl)-6,7,8,9-tetrahydro-5H-pyrrolo[2,3-b:4,5-c′]dipyridine], for which, under setting [5], the “Percentage inhibition … (0.1 μM)” value was found to be 36%. Further, the inhibition at 0.1 µM under setting [2] stood at 25%.
On to `C/C(=C\n1c2c(c3cc(C)ccc31)CN(C)CC2)c1ccc(C)nc1` [compound 186], for which the “Percentage inhibition … (0.1 μM)” value under setting [5] came out at 55%. Under setting [1], the inhibition at 0.03 µM turned out to be 24%. Also, the inhibition at 0.1 µM under setting [2] is 53%.
As to `COc1ccc(/C(C)=C/n2c3c(c4cc(Cl)ccc42)CCN(C)CC3)cc1F` [compound 240], the “Percentage inhibition … (0.1 μM)” value under setting [5] is 75%. Further, under setting [2], the inhibition at 0.1 µM worked out at 74%.
Take `C/C(=C\n1c2c(c3cc(C)ccc31)CN(C)CC2)c1cnc(N(C)C)nc1` [compound 187]: under setting [2], the inhibition at 0.1 µM stood at 71%.
